Assay results taken from publication PMC4450660, “Biochemical and Structural Characterization of Enolase from Chloroflexus aurantiacus: Evidence for a Thermophilic Origin” (Frontiers in Bioengineering and Biotechnology, 2015).

Target: T1, EnoCa (enolase-1 from Chloroflexus aurantiacus) (Chloroflexus aurantiacus, UniProt A9WCM4)
T1 construct: gene eno; native protein purified from C. aurantiacus cells, untagged; homodimer, subunit ~46 kDa, total ~92-96 kDa
Experiment: X-ray crystal structure of the complex
Type: binding
Conditions: active site, closed conformation, second Mg2+ modelled; crystals at pH 9.0

T1 sequence (A9WCM4 whole entry): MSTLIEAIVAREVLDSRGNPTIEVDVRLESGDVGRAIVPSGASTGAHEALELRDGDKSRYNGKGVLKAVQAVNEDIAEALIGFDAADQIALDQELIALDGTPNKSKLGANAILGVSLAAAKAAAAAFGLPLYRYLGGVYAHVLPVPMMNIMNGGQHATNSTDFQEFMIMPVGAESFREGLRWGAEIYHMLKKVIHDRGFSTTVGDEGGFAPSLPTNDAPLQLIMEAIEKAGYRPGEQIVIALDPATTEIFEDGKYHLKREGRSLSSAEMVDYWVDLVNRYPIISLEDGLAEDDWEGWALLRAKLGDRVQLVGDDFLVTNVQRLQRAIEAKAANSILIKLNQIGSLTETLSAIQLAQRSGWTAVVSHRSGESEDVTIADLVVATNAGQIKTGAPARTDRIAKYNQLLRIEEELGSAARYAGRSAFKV

C=C(OP(=O)(O)O)C(=O)O [phosphoenolpyruvate]
X-ray crystal structure of the complex: PEP itself is bound by Glu165, Glu206, Lys338, Arg367, and Ser368
